Measured values: patent US20240209028A1, “CNP COMPOUNDS” (priority 2022, published 2024)
In brackets after ≈: the same amount, converted by molar mass. Read-outs that look alike come from different tables or passages of the source. Starred links: 1 amine or outer side, 2 acyl side, 3 side chain; linkers in the order of their positions; H or OH if unused. Positions of bridges follow the written chain, without caps; N, C: chain ends. Residues, ends and D or L forms follow the SMILES beside them. *: point of attachment. C18 diacid = O=C(O)CCCCCCCCCCCCCCCCC(=O)*; γGlu = O=C(O)[C@H](CCC(=O)[*:2])N[*:1]; AEEA = NCCOCCOCC(=O)O

Columns and labels:
[1] = Solubility of CNP compounds at pH 4.0 and pH 6.5; type: physicochemical
Summary of the method: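 Freeze-dried peptide was brought to a nominal ≥4000-5000 nmol/mL in 5 mM sodium acetate, 250 mM glycerol (pH 4.0) or in 8 mM sodium phosphate, 23 mg/mL glycerol (pH 6.5 via NaOH titration). Samples were equilibrated at room temperature overnight if undissolved, and supernatant concentration was measured by CAD.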

[2] = High-Molecular-Weight-Protein (HMWP) formation by SEC-UPLC; type: physicochemical; settings: increase over two weeks at 37° C.
Procedure: In order to assess the propensity of CNP compounds to form covalent dimers or oligomers when formulated the High-Molecular-Weight-Protein content of CNP compound formulations at pH 4.0 and 6.5 were determined.
Procedure: The relative amount of covalent HMWP was assessed using SEC-UPLC. SEC-UPLC was conducted using a Waters UPLC Protein BEH SEC column, 125A, 4.6×150 mm, 1.7 μm, with isocratic elution (0.3 M NaCl, 10 mM NaH2PO4 and 5 mM H3PO4, 50% (v/v) isopropanol, pH 2.4) with a flow rate of 0.3 mL/min, a column temperature at 50° C. with UV-detection at 215 nm. The total area of peaks eluting prior to the monomeric main peak was termed HMWP and given on a percentage scale relative to the total peptide peak area.
(§1) Results: HMWP Formation Following 2-Weeks Quiescent Incubation at 37° C.: Samples at pH 4.0 were prepared as described in Example 5 and the amount of HMWP was determined as described above. Samples were incubated for two weeks at 37° C. and the amount of HMWP was determined again. The increase in HMWP over two weeks incubation at 37° C. are reported in Table 10 (in case the incubation period deviated from two weeks the increase in HMWP was normalized to two weeks assuming a constant formation rate).
as §1, with “Samples” for “Results: HMWP Formation Following 2-Weeks Quiescent Incubation at 37° C.: Samples”, “6.5” for “4.0”, “11” for “10”

[3] = 8 mM sodium phosphate, 23 mg/mL glycerol, pH 6.5, room temperature, read-out: Solubility at pH 6.5
[4] = 5 mM sodium acetate, 250 mM glycerol, pH 4.0, room temperature, read-out: Solubility at pH 4.0

| SMILES | solubility [1, 3] [mM] | 2-Week HMWP formation at pH 6.5 (%), % relative to total peak area [2] [%] | solubility [1, 4] [mM] | 2-Week HMWP formation at pH 4.0 (%), % relative to total peak area [2] [%] |
| --- | --- | --- | --- | --- |
| CC[C@H](C)[C@@H]1NC(=O)[C@H](CCCNC(=N)N)NC(=O)[C@H](CC(=O)O)NC(=O)[C@H](CC(C)C)NC(=O)[C@@H]2CCCN2C(=O)[C@H](CC(C)C)NC(=O)CNC(=O)[C@H](Cc2ccccc2)NC(=O)[C@@H](NC(=O)CNC(=O)[C@H](CO)NC(=O)[C@H](CO)NC(=O)[C@H](CC(C)C)NC(=O)CNC(=O)[C@H](CCCCN)NC(=O)[C@H](CCCCN)NC(=O)[C@H](CCC(N)=O)NC(=O)[C@H](C)NC(=O)CNC(=O)[C@H](CCC(=O)O)NC(=O)[C@H](Cc2ccc(O)cc2)NC(=O)CNC(=O)CNC(=O)CNC(=O)COCCOCCNC(=O)COCCOCCNC(=O)CC[C@H](NC(=O)CCCCCCCCCCCCCCCCC(=O)O)C(=O)O)CSSC[C@@H](C(=O)O)NC(=O)CNC(=O)[C@H](CC(C)C)NC(=O)CNC(=O)[C@H](CO)NC(=O)[C@H](CC(C)C)NC(=O)[C@H](CO)NC(=O)CNC1=O [compound 1378] ({C18 diacid-γGlu-AEEA-AEEA}-GGGYEGAQKKGLSSGCFGLPLDRIGSLSGLGC-OH; disulfide 16-32) | 8.92 (≈ 33.9 mg/mL) | 6.67 | – | – |
| CC[C@H](C)[C@@H]1NC(=O)[C@H](CCCNC(=N)N)NC(=O)[C@H](CC(=O)O)NC(=O)[C@H](CC(C)C)NC(=O)[C@@H]2CCCN2C(=O)[C@H](CC(C)C)NC(=O)CNC(=O)[C@H](Cc2ccccc2)NC(=O)[C@@H](NC(=O)CNC(=O)[C@H](CCC(N)=O)NC(=O)[C@H](CO)NC(=O)[C@H](CO)NC(=O)CNC(=O)[C@H](Cc2c[nH]cn2)NC(=O)[C@H](Cc2c[nH]cn2)NC(=O)[C@H](CCC(N)=O)NC(=O)[C@H](C)NC(=O)CNC(=O)[C@H](Cc2c[nH]cn2)NC(=O)[C@H](Cc2ccc(O)cc2)NC(=O)[C@H](CCCCN)NC(=O)[C@H](Cc2c[nH]cn2)NC(=O)[C@H](C)NC(=O)[C@H](CCC(N)=O)NC(=O)[C@@H]2CCCN2C(=O)[C@H](Cc2c[nH]cn2)NC(=O)[C@H](CCC(=O)O)NC(=O)[C@H](CCC(N)=O)NC(=O)COCCOCCNC(=O)COCCOCCNC(=O)CC[C@H](NC(=O)CCCCCCCCCCCCCCCCC(=O)O)C(=O)O)CSSC[C@@H](C(=O)O)NC(=O)CNC(=O)[C@H](CC(C)C)NC(=O)CNC(=O)[C@H](CO)NC(=O)[C@H](CC(C)C)NC(=O)[C@H](CO)NC(=O)CNC1=O [compound 1381] ({C18 diacid-γGlu-AEEA-AEEA}-QEHPQAHKYHGAQHHGSSQGCFGLPLDRIGSLSGLGC-OH; disulfide 21-37) | – | – | 9 (≈ 41.6 mg/mL) | 0.84 |
| CC[C@H](C)[C@@H]1NC(=O)[C@H](CCCNC(=N)N)NC(=O)[C@H](CC(=O)O)NC(=O)[C@H](CC(C)C)NC(=O)[C@@H]2CCCN2C(=O)[C@H](CC(C)C)NC(=O)CNC(=O)[C@H](Cc2ccccc2)NC(=O)[C@@H](NC(=O)CNC(=O)[C@H](CCC(N)=O)NC(=O)[C@H](CO)NC(=O)[C@H](CC(C)C)NC(=O)CNC(=O)[C@H](CCCCN)NC(=O)[C@H](CCCCN)NC(=O)[C@H](CCC(N)=O)NC(=O)[C@H](C)NC(=O)CNC(=O)[C@H](CCCCN)NC(=O)[C@H](Cc2ccc(O)cc2)NC(=O)[C@H](CCCCN)NC(=O)[C@H](Cc2c[nH]cn2)NC(=O)[C@H](C)NC(=O)[C@H](CCC(N)=O)NC(=O)[C@@H]2CCCN2C(=O)[C@H](Cc2c[nH]cn2)NC(=O)[C@H](CCC(=O)O)NC(=O)[C@H](CCC(N)=O)NC(=O)COCCOCCNC(=O)COCCOCCNC(=O)CC[C@H](NC(=O)CC[C@H](NC(=O)CC[C@H](NC(=O)CCCCCCCCCCCCCCCCC(=O)O)C(=O)O)C(=O)O)C(=O)O)CSSC[C@@H](C(=O)O)NC(=O)CNC(=O)[C@H](CC(C)C)NC(=O)CNC(=O)[C@H](CO)NC(=O)[C@H](CC(C)C)NC(=O)[C@H](CO)NC(=O)CNC1=O [compound 1382] ({C18 diacid-γGlu-γGlu-γGlu-AEEA-AEEA}-QEHPQAHKYKGAQKKGLSQGCFGLPLDRIGSLSGLGC-OH; disulfide 21-37) | 3.18 (≈ 15.5 mg/mL) | 0 | – | – |
| CC[C@H](C)[C@@H]1NC(=O)[C@H](CCCNC(=N)N)NC(=O)[C@H](CC(=O)O)NC(=O)[C@H](CC(C)C)NC(=O)[C@@H]2CCCN2C(=O)[C@H](CC(C)C)NC(=O)CNC(=O)[C@H](Cc2ccccc2)NC(=O)[C@@H](NC(=O)CNC(=O)[C@H](CO)NC(=O)[C@H](CO)NC(=O)[C@H](CC(C)C)NC(=O)CNC(=O)[C@H](CCCCN)NC(=O)[C@H](CCCCN)NC(=O)[C@H](CCC(N)=O)NC(=O)[C@H](C)NC(=O)CNC(=O)[C@H](CCCCN)NC(=O)[C@H](Cc2ccc(O)cc2)NC(=O)[C@H](CCCCN)NC(=O)[C@H](CCCNC(=N)N)NC(=O)[C@H](C)NC(=O)[C@H](CCC(N)=O)NC(=O)[C@@H]2CCCN2C(=O)[C@H](Cc2c[nH]cn2)NC(=O)[C@H](CCC(=O)O)NC(=O)[C@H](CCC(N)=O)NC(=O)CC[C@H](NC(=O)CC[C@H](NC(=O)CC[C@H](NC(=O)CC[C@H](NC(=O)CCCCCCCCCCCCCCCCC(=O)O)C(=O)O)C(=O)O)C(=O)O)C(=O)O)CSSC[C@@H](C(=O)O)NC(=O)CNC(=O)[C@H](CC(C)C)NC(=O)CNC(=O)[C@H](CO)NC(=O)[C@H](CC(C)C)NC(=O)[C@H](CO)NC(=O)CNC1=O [compound 1389] ({C18 diacid-γGlu-γGlu-γGlu-γGlu}-QEHPQARKYKGAQKKGLSSGCFGLPLDRIGSLSGLGC-OH; disulfide 21-37) | 0.426 (≈ 2 mg/mL) | – | 8.9 (≈ 41.8 mg/mL) | 1.43 |
| CC[C@H](C)[C@@H]1NC(=O)[C@H](CCCNC(=N)N)NC(=O)[C@H](CC(=O)O)NC(=O)[C@H](CC(C)C)NC(=O)[C@@H]2CCCN2C(=O)[C@H](CC(C)C)NC(=O)CNC(=O)[C@H](Cc2ccccc2)NC(=O)[C@@H](NC(=O)CNC(=O)[C@H](CO)NC(=O)[C@H](CO)NC(=O)[C@H](CC(C)C)NC(=O)CNC(=O)[C@H](CCCCN)NC(=O)[C@H](CCCCN)NC(=O)[C@H](CCC(N)=O)NC(=O)[C@H](C)NC(=O)CNC(=O)[C@H](CCC(=O)O)NC(=O)[C@H](Cc2ccc(O)cc2)NC(=O)COCCOCCNC(=O)COCCOCCNC(=O)COCCOCCNC(=O)COCCOCCNC(=O)CC[C@H](NC(=O)CCCCCCCCCCCCCCCCC(=O)O)C(=O)O)CSSC[C@@H](C(=O)O)NC(=O)CNC(=O)[C@H](CC(C)C)NC(=O)CNC(=O)[C@H](CO)NC(=O)[C@H](CC(C)C)NC(=O)[C@H](CO)NC(=O)CNC1=O [compound 1392] ({C18 diacid-γGlu-AEEA-AEEA-AEEA-AEEA}-YEGAQKKGLSSGCFGLPLDRIGSLSGLGC-OH; disulfide 13-29) | 9.88 (≈ 38.7 mg/mL) | 0.33 | – | – |
